Test results as given in ChEMBL document CHEMBL4196183, “Discovery of New Allosteric Modulators of the Urotensinergic System through Substitution of the Urotensin II-Related Peptide (URP) Phenylalanine Residue” (J Med Chem, 2018).

What was measured:
Urotensin-2 receptor [1] = target: T1, Urotensin-2 receptor (Homo sapiens, UniProt Q9UKP6); test: Agonist activity at human UT receptor expressed in HEK293 cells co-expressing Gq-polycistronic BRET biosensor assessed as induction of Gq activation measured for 5 mins by luminescence detection based BRET assay; type: functional, cell-based
T1 sequence (Q9UKP6 whole entry): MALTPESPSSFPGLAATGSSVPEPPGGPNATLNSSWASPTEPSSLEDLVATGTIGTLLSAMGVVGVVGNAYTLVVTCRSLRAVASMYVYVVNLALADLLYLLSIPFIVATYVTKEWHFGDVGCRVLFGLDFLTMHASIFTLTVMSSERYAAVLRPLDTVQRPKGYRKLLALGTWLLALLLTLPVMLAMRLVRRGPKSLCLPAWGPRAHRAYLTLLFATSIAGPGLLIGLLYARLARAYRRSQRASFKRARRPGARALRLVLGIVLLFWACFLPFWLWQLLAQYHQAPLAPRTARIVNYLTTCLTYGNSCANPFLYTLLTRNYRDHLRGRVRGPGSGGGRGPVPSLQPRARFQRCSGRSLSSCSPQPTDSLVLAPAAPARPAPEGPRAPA

Urotensin-2 receptor [2] = target: T1, Urotensin-2 receptor; test: Agonist activity at human UT receptor expressed in HEK293 cells co-expressing beta-arrestin1-polycistronic BRET biosensor assessed as induction of beta-arrestin1 recruitment measured for 5 mins by luminescence detection based BRET assay; type: functional, cell-based
Urotensin-2 receptor [3] = target: T1, Urotensin-2 receptor; test: Agonist activity at human UT receptor expressed in HEK293 cells co-expressing G12-polycistronic BRET biosensor assessed as induction of G12 activation measured for 5 mins by luminescence detection based BRET assay; type: functional, cell-based
Urotensin-2 receptor [4] = target: T2, Urotensin-2 receptor (Rattus norvegicus, UniProt P49684); test: Agonist activity at UT receptor in Sprague-Dawley rat thoracic aortic ring assessed as induction of contraction; type: functional
T2 sequence (P49684 whole entry): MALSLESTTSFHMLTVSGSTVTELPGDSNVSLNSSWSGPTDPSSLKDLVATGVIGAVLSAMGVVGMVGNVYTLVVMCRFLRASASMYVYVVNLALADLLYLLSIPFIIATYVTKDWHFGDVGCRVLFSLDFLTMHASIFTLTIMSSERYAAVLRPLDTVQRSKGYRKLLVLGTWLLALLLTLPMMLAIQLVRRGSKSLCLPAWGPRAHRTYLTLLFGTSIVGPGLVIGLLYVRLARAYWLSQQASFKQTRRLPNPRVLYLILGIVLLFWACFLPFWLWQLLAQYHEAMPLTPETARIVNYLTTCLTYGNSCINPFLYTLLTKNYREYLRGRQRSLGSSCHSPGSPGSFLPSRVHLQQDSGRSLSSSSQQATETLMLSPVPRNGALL

Urotensin-2 receptor [5] = target: T1, Urotensin-2 receptor; test: Displacement of [Na125I]-synthetic URP from human UT receptor expressed in HEK293 cell membranes incubated for 2 hrs by gamma-counting
[6] = target: T3, Urotensin-2 receptor (Homo sapiens) (UniProt Q9UKP6); test: Bias factor, ratio of deltalog(Tau/KA) for agonist activity at human UT receptor expressed in HEK293 cells co-expressing beta-arrestin1-polycistronic BRET biosensor assessed as induction of beta-arrestin1 recruitment by luminescence detection based BRET assay to deltalog(Tau/KA) for agonist activity at human UT receptor expressed in HEK293 cells co-expressing G12-polycistronic BRET biosensor assessed as induction of G12 activation by luminescence detection based BRET assay; type: functional, cell-based
T3 sequence (whole entry): T1 sequence (Q9UKP6 whole entry)

[7] = target: T3, Urotensin-2 receptor (Homo sapiens); test: Bias factor, ratio of deltalog(Tau/KA) for agonist activity at human UT receptor expressed in HEK293 cells co-expressing Gq-polycistronic BRET biosensor assessed as induction of Gq activation by luminescence detection based BRET assay to deltalog(Tau/KA) for agonist activity at human UT receptor expressed in HEK293 cells co-expressing beta-arrestin1-polycistronic BRET biosensor assessed as induction of beta-arrestin1 recruitment by luminescence detection based BRET assay; type: functional, cell-based
[8] = target: T4, Urotensin-2 receptor (Rattus norvegicus) (UniProt P49684); test: Agonist activity at UT receptor in Sprague-Dawley rat thoracic aortic ring assessed as induction of contraction relative to KCl-induced contraction; type: functional
T4 sequence (whole entry): T2 sequence (P49684 whole entry)

[9] = target: T3, Urotensin-2 receptor (Homo sapiens); test: Selectivity index, change in deltalog(Tau/KA) for agonist activity at human UT receptor expressed in HEK293 cells co-expressing Gq-polycistronic BRET biosensor assessed as induction of Gq activation by luminescence detection based BRET assay to deltalog(Tau/KA) for agonist activity at human UT receptor expressed in HEK293 cells co-expressing beta-arrestin1-polycistronic BRET biosensor assessed as induction of beta-arrestin1 recruitment by luminescence detection based BRET assay; type: functional, cell-based
[10] = target: T3, Urotensin-2 receptor (Homo sapiens); test: Selectivity index, change in deltalog(Tau/KA) for agonist activity at human UT receptor expressed in HEK293 cells co-expressing G12-polycistronic BRET biosensor assessed as induction of G12 activation by luminescence detection based BRET assay to deltalog(Tau/KA) for agonist activity at human UT receptor expressed in HEK293 cells co-expressing Gq-polycistronic BRET biosensor assessed as induction of Gq activation by luminescence detection based BRET assay; type: functional, cell-based
[11] = target: T3, Urotensin-2 receptor (Homo sapiens); test: Bias factor, ratio of deltalog(Tau/KA) for agonist activity at human UT receptor expressed in HEK293 cells co-expressing G12-polycistronic BRET biosensor assessed as induction of G12 activation by luminescence detection based BRET assay to deltalog(Tau/KA) for agonist activity at human UT receptor expressed in HEK293 cells co-expressing Gq-polycistronic BRET biosensor assessed as induction of Gq activation by luminescence detection based BRET assay; type: functional, cell-based
[12] = target: T3, Urotensin-2 receptor (Homo sapiens); test: Agonist activity at human UT receptor expressed in HEK293 cells co-expressing Gq-polycistronic BRET biosensor assessed as induction of Gq activation measured for 5 mins by luminescence detection based BRET assay relative to 10 uM URP; type: functional, cell-based
[13] = target: T3, Urotensin-2 receptor (Homo sapiens); test: Bias factor, ratio of deltalog(Tau/KA) for agonist activity at human UT receptor expressed in HEK293 cells co-expressing G12-polycistronic BRET biosensor assessed as induction of G12 activation by luminescence detection based BRET assay to deltalog(Tau/KA) for agonist activity at human UT receptor expressed in HEK293 cells co-expressing beta-arrestin1-polycistronic BRET biosensor assessed as induction of beta-arrestin1 recruitment by luminescence detection based BRET assay; type: functional, cell-based
[14] = target: T3, Urotensin-2 receptor (Homo sapiens); test: Selectivity index, change in deltalog(Tau/KA) for agonist activity at human UT receptor expressed in HEK293 cells co-expressing beta-arrestin1-polycistronic BRET biosensor assessed as induction of beta-arrestin1 recruitment by luminescence detection based BRET assay to deltalog(Tau/KA) for agonist activity at human UT receptor expressed in HEK293 cells co-expressing G12-polycistronic BRET biosensor assessed as induction of G12 activation by luminescence detection based BRET assay to; type: functional, cell-based
[15] = target: T3, Urotensin-2 receptor (Homo sapiens); test: Agonist activity at human UT receptor expressed in HEK293 cells co-expressing beta-arrestin1-polycistronic BRET biosensor assessed as induction of beta-arrestin1 recruitment measured for 5 mins by luminescence detection based BRET assay relative to 10 uM URP; type: functional, cell-based
[16] = target: T3, Urotensin-2 receptor (Homo sapiens); test: Bias factor, ratio of deltalog(Tau/KA) for agonist activity at human UT receptor expressed in HEK293 cells co-expressing beta-arrestin1-polycistronic BRET biosensor assessed as induction of beta-arrestin1 recruitment by luminescence detection based BRET assay to deltalog(Tau/KA) for agonist activity at human UT receptor expressed in HEK293 cells co-expressing Gq-polycistronic BRET biosensor assessed as induction of Gq activation by luminescence detection based BRET assay; type: functional, cell-based
[17] = target: T3, Urotensin-2 receptor (Homo sapiens); test: Bias factor, ratio of deltalog(Tau/KA) for agonist activity at human UT receptor expressed in HEK293 cells co-expressing Gq-polycistronic BRET biosensor assessed as induction of Gq activation by luminescence detection based BRET assay to deltalog(Tau/KA) for agonist activity at human UT receptor expressed in HEK293 cells co-expressing G12-polycistronic BRET biosensor assessed as induction of G12 activation by luminescence detection based BRET assay; type: functional, cell-based
[18] = target: T3, Urotensin-2 receptor (Homo sapiens); test: Agonist activity at human UT receptor expressed in HEK293 cells co-expressing G12-polycistronic BRET biosensor assessed as induction of G12 activation measured for 5 mins by luminescence detection based BRET assay relative to 10 uM URP; type: functional, cell-based

## CC(C)[C@H](NC(=O)[C@@H]1CSSC[C@H](NC(=O)[C@H](C)N)C(=O)N[C@H](Cc2ccc(I)cc2)C(=O)N[C@@H](Cc2c[nH]c3ccccc23)C(=O)N[C@@H](CCCCN)C(=O)N[C@@H](Cc2ccc(O)cc2)C(=O)N1)C(=O)O
Urotensin-2 receptor [1]
  EC50: 53.7 nM
Urotensin-2 receptor [2]
  EC50: 355 nM
Urotensin-2 receptor [3]
  EC50: 89.1 nM
Urotensin-2 receptor [4]
  EC50: 13.8 nM
Urotensin-2 receptor [5]
  IC50: > 1000 nM

## CC(C)[C@H](NC(=O)[C@@H]1CSSC[C@H](NC(=O)[C@@H](N)CC(=O)O)C(=O)N[C@@H](Cc2ccc(I)cc2)C(=O)N[C@@H](Cc2c[nH]c3ccccc23)C(=O)N[C@@H](CCCCN)C(=O)N[C@@H](Cc2ccc(O)cc2)C(=O)N1)C(=O)O
[6]
  fold change (FC): 0.8
[7]
  fold change (FC): 0.8
[8]
  Emax: 112%
[9]
  selectivity index, deltadeltalog(Tau/KA): -0.1
[10]
  deltalog(Tau/KA): 0.22
Urotensin-2 receptor [1]
  EC50: 7.08 nM
[11]
  fold change (FC): 1.7
[12]
  Emax: 100%
[13]
  fold change (FC): 1.3
[14]
  deltadeltalog(Tau/KA) (beta-arrestin1 selectivity index): -0.13
[15]
  Emax: 104%
Urotensin-2 receptor [2]
  EC50: 191 nM
Urotensin-2 receptor [3]
  EC50: 36.3 nM
Urotensin-2 receptor [4]
  EC50: 10.5 nM
Urotensin-2 receptor [5]
  IC50: 3.98 nM
[16]
  fold change (FC): 1.2
[17]
  fold change (FC): 0.6
[18]
  Emax: 94%

## CC(C)[C@H](NC(=O)[C@@H]1CSSC[C@H](NC(=O)[C@H](C)N)C(=O)N[C@@H](Cc2ccc(I)cc2)C(=O)N[C@@H](Cc2c[nH]c3ccccc23)C(=O)N[C@@H](CCCCN)C(=O)N[C@@H](Cc2ccc(O)cc2)C(=O)N1)C(=O)O
[6]
  fold change (FC): 2.8
[7]
  fold change (FC): 0.5
[8]
  Emax: 53%
[9]
  selectivity index, deltadeltalog(Tau/KA): -0.32
[10]
  deltalog(Tau/KA): -0.12
Urotensin-2 receptor [1]
  EC50: 10.7 nM
[11]
  fold change (FC): 0.8
[12]
  Emax: 97%
[13]
  fold change (FC): 0.4
[14]
  deltadeltalog(Tau/KA) (beta-arrestin1 selectivity index): 0.45
[15]
  Emax: 101%
Urotensin-2 receptor [2]
  EC50: 182 nM
Urotensin-2 receptor [3]
  EC50: 47.9 nM
Urotensin-2 receptor [4]
  EC50: 31.6 nM
Urotensin-2 receptor [5]
  IC50: 5.62 nM
[16]
  fold change (FC): 2.1
[17]
  fold change (FC): 1.3
[18]
  Emax: 73%

## CC(C)[C@H](NC(=O)[C@@H]1CSSC[C@H](NC(=O)[C@@H](N)CC(=O)O)C(=O)N[C@H](Cc2ccc(I)cc2)C(=O)N[C@@H](Cc2c[nH]c3ccccc23)C(=O)N[C@@H](CCCCN)C(=O)N[C@@H](Cc2ccc(O)cc2)C(=O)N1)C(=O)O
Urotensin-2 receptor [1]
  EC50: 46.8 nM
Urotensin-2 receptor [2]
  EC50: 347 nM
Urotensin-2 receptor [3]
  EC50: 123 nM
Urotensin-2 receptor [4]
  EC50: > 10000 nM
Urotensin-2 receptor [5]
  IC50: > 1000 nM

## CC(C)[C@H](NC(=O)[C@@H]1CSSC[C@H](NC(=O)[C@H](C)N)C(=O)N[C@H](Cc2ccc(-c3ccccc3)cc2)C(=O)N[C@@H](Cc2c[nH]c3ccccc23)C(=O)N[C@@H](CCCCN)C(=O)N[C@@H](Cc2ccc(O)cc2)C(=O)N1)C(=O)O
Urotensin-2 receptor [1]
  EC50: 3550 nM
Urotensin-2 receptor [2]
  EC50: 1150 nM
Urotensin-2 receptor [3]
  EC50: 661 nM
Urotensin-2 receptor [4]
  EC50: 1.91 nM
Urotensin-2 receptor [5]
  IC50: > 1000 nM

## CC(C)[C@H](NC(=O)[C@@H]1CSSC[C@H](NC(=O)[C@H](C)N)C(=O)N[C@H](Cc2ccc(C#Cc3ccccc3)cc2)C(=O)N[C@@H](Cc2c[nH]c3ccccc23)C(=O)N[C@@H](CCCCN)C(=O)N[C@@H](Cc2ccc(O)cc2)C(=O)N1)C(=O)O
Urotensin-2 receptor [1]
  EC50: 617 nM
Urotensin-2 receptor [2]
  EC50: 3310 nM
Urotensin-2 receptor [3]
  EC50: 380 nM
Urotensin-2 receptor [4]
  EC50: 1.35 nM
Urotensin-2 receptor [5]
  IC50: > 1000 nM

## CC(C)[C@H](NC(=O)[C@@H]1CSSC[C@H](NC(=O)[C@H](C)N)C(=O)N[C@@H](Cc2ccccc2)C(=O)N[C@@H](Cc2c[nH]c3ccccc23)C(=O)N[C@@H](CCCCN)C(=O)N[C@@H](Cc2ccc(O)cc2)C(=O)N1)C(=O)O
[6]
  fold change (FC): 1
[7]
  fold change (FC): 1
[8]
  Emax: 107%
[9]
  selectivity index, deltadeltalog(Tau/KA): 0
[10]
  deltalog(Tau/KA): 0
Urotensin-2 receptor [1]
  EC50: 3.63 nM
[11]
  fold change (FC): 1
[13]
  fold change (FC): 1
[14]
  deltadeltalog(Tau/KA) (beta-arrestin1 selectivity index): 0
Urotensin-2 receptor [2]
  EC50: 145 nM
Urotensin-2 receptor [3]
  EC50: 91.2 nM
Urotensin-2 receptor [4]
  EC50: 6.92 nM
Urotensin-2 receptor [5]
  IC50: 19.5 nM
[16]
  fold change (FC): 1
[17]
  fold change (FC): 1
